Results reported in patent US10377770B2 (Novartis AG, priority 2015, dated 2019).

Each compound was assayed against C-Raf FL (full length CRAF with Y340E and Y341E activating mutations, co-expressed with h14-3-3 zeta) (Homo sapiens (Human), UniProt P04049, Y340E/Y341E) (assay: In vitro Raf activity determination, AlphaScreen p-MEK readout, c-Raf (C-Raf FL)). Conditions: c-Raf approximately 4 nM, ATP 1 μM, pre-incubation 60 minutes, reaction 1 hour.
C-Raf FL (full length CRAF with Y340E and Y341E activating mutations, co-expressed with h14-3-3 zeta), sequence (P04049 whole entry Y340E/Y341E): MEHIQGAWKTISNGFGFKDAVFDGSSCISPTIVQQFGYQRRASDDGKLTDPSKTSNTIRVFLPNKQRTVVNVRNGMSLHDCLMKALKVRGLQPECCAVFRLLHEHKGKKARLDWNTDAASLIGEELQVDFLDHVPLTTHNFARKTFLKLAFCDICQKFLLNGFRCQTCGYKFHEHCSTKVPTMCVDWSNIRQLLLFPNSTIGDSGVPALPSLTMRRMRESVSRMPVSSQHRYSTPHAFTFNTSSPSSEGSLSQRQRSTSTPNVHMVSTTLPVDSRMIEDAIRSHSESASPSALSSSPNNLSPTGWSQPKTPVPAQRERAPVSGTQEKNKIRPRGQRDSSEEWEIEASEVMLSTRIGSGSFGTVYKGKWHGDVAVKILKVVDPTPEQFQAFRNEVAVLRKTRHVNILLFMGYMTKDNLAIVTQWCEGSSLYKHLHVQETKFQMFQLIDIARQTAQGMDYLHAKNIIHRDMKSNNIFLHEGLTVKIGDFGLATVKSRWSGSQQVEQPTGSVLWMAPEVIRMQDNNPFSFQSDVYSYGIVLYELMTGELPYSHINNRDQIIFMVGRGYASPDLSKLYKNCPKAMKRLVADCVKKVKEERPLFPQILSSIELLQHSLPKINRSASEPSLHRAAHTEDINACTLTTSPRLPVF
C-Raf FL (full length CRAF with Y340E and Y341E activating mutations, co-expressed with h14-3-3 zeta), sequence (P63104 whole entry partner): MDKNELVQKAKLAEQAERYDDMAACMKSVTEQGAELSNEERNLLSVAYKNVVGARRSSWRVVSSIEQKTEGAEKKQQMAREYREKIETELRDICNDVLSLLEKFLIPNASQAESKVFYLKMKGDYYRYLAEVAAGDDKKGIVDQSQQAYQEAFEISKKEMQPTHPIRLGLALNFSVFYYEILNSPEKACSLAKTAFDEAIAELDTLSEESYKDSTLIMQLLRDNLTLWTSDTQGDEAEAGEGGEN
Assay type: biochemical
Summary of the method: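 Phosphorylation of kinase-dead biotinylated MEK1 (~10 nM) by C-Raf FL (~4 nM) read by AlphaScreen luminescence with anti-phospho-MEK1/2 after EDTA stop. ATP was 1 μM, with a 1 h reaction at room temperature. Compounds were pre-incubated with enzyme and substrate for 60 min in Tris/MgCl2 buffer, pH 7.5.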
For `Cc1ccc(NC(=O)c2ccnc(C(C)(C)C#N)c2)cc1-c1cnc2c(c1)N1CCOCC1C1(COC1)C2` (racemic) [Example 157, rac-2-(2-cyanopropan-2-yl)-N-(4-methyl-3-(2,4,4a,6-tetrahydro-1H-spiro[[1,4]oxazino[4,3-a][1,5]naphthyridine-5,3′-oxetan]-9-yl)phenyl)isonicotinamide], the IC50 was 160 pM.
For `Cc1ccc(NC(=O)c2ccnc(C(C)(F)F)c2)cc1-c1cnc2c(c1)N1CCOCC1C(CO)(CO)C2` (racemic) [Example 158, rac-N-(3-(5,5-bis(hydroxymethyl)-yl)-1,2,4,4a,5,6-hexahydro-[1,4]oxazino[4,3-a][1,5]naphthyridin-9-yl)-4-methylphenyl)-2-(1,1-difluoroethyl)isonicotinamide], the IC50 was 10 pM.
With `Cc1ccc(NC(=O)c2cc(C(F)(F)F)ccn2)cc1-c1cnc2c(c1)N1CCOCC1C(CO)(CO)C2` (racemic) [Example 159, rac-N-(3-(5,5-bis(hydroxymethyl)-1,2,4,4a,5,6-hexahydro-[1,4]oxazino[4,3-a][1,5]naphthyridin-9-yl)-4-methylphenyl)-4-(trifluoromethyl)picolinamide] the IC50 was 6.8 pM.
`Cc1ccc(NC(=O)c2ccnc(C(C)(F)F)c2)cc1-c1cnc2c(c1)N1CCOC[C@H]1C(C)(C)[C@@H]2O` (racemic) [Example 160, rac-cis-2-(1,1-difluoroethyl)-N-(3-(6-hydroxy-5,5-dimethyl-1,2,4,4a,5,6-hexahydro-[1,4]oxazino[4,3-a][1,5]naphthyridin-9-yl)-4-methylphenyl)isonicotinamide] showed an IC50 of 27 pM.
`Cc1ccc(NC(=O)c2ccnc(C(C)(F)F)c2)cc1-c1cnc2c(c1)N1CCOC[C@H]1C(F)(F)[C@@H]2O` (racemic) [Example 163, rac-cis-N-(3-(5,5-difluoro-6-hydroxy-1,2,4,4a,5,6-hexahydro-[1,4]oxazino[4,3-a][1,5]naphthyridin-9-yl)-4-methylphenyl)-2-(1,1-difluoroethyl)isonicotinamide] was tested, and the IC50 was 20 pM.
`Cc1ccc(NC(=O)c2ccnc(C(F)(F)F)c2)cc1-c1cnc2c(c1)N1CCOCC1C(F)(F)C2O` (racemic) [Example 166, rac-cis-N-(3-(5,5-difluoro-6-hydroxy-1′2′4′4a′5′6-hexahydro-[1,4]oxazino[4,3-a][1,5]naphthyridin-9-yl)-4-methylphenyl)-2-(trifluoromethyl)isonicotinamide] was tested, and the IC50 was 11 pM.
`Cc1ccc(NC(=O)c2ccnc(C(C)(F)F)c2)cc1-c1cnc2c(c1)N1CCOC[C@H]1C[C@@]2(O)C(F)(F)F` (racemic) [Example 169, rac-cis-2-(1,1-difluoroethyl)-N-(3-(6-hydroxy-6-(trifluoromethyl)-1,2,4,4a,5,6-hexahydro-[1,4]oxazino[4,3-a][1,5]naphthyridin-9-yl)-4-methylphenyl)isonicotinamide] gave an IC50 of 32 pM.
`Cc1ccc(NC(=O)c2ccnc(C(F)(F)F)c2)cc1-c1cnc2c(c1)N1CCOC[C@H]1C[C@@]2(O)C(F)(F)F` (racemic) [Example 170, rac-cis-N-(3-(6-hydroxy-6-(trifluoromethyl)-1,2,4,4a,5,6-hexahydro-[1,4]oxazino[4,3-a][1,5]naphthyridin-9-yl)-4-methylphenyl)-2-(trifluoromethyl)isonicotinamide] showed an IC50 of 25 pM.
Work on `Cc1ccc(NC(=O)c2ccnc(C(F)(F)F)c2)cc1-c1cnc2c(c1)N1CCOCC1CC2N` (racemic) [Example 171, rac-N-(3-(6-amino-1,2,4,4a,5,6-hexahydro-[1,4]oxazino[4,3-a][1,5]naphthyridin-9-yl)-4-methylphenyl)-2-(trifluoromethyl)isonicotinamide] yielded an IC50 of 19 pM.
`CCC(=O)NC1CC2COCCN2c2cc(-c3cc(NC(=O)c4ccnc(C(F)(F)F)c4)ccc3C)cnc21` (racemic) [Example 172, rac-N-(4-methyl-3-(6-propionamido-1,2,4,4a,5,6-hexahydro-[1,4]oxazino[4,3-a][1,5]naphthyridin-9-yl)phenyl)-2-(trifluoromethyl)isonicotinamide] gave an IC50 of 34 pM.
For `CNC(=O)C1Cc2ncc(-c3cc(NC(=O)c4ccnc(C(C)(F)F)c4)ccc3C)cc2N2CCOCC12` (racemic) [Example 173, rac-9-(5-(2-(1,1-difluoroethyl)isonicotinamido)-2-methylphenyl)-N-methyl-1,2,4,4a,5,6-hexahydro-[1,4]oxazino[4,3-a][1,5]naphthyridine-5-carboxamide], the IC50 was 12 pM.
In the case of `CCN1C(=O)Cc2nncn2-c2cc(-c3cc(NC(=O)c4ccnc(C(C)(F)F)c4)ccc3C)cnc21` (racemic) [Example 234, 2-(1,1-difluoroethyl)-N-(3-(6-ethyl-5-oxo-5,6-dihydro-4H-pyrido[2,3-b][1,2,4]triazolo[4,3-d][1,4]diazepin-9-yl)-4-methylphenyl)isonicotinamide], the IC50 is reported as 1300 pM.
Work on `CCN1C(=O)[C@H]2[C@@H]3COC[C@@H]3[C@H]2c2cc(-c3cc(NC(=O)c4ccnc(C(F)(F)F)c4)ccc3C)cnc21` (racemic) [Example 362] yielded an IC50 of 200 pM.
`Cc1ccc(NC(=O)c2ccnc(C(F)(F)F)c2)cc1-c1ccc2c(c1)N1CCOCC1C(CS(C)(=O)=O)C2` (racemic) [Example 363, (rac)-N-(4-methyl-3-(5-((methylsulfonyl)methyl)-1,2,4,4a,5,6-hexahydro-[1,4]oxazino[4,3-a]quinolin-9-yl)phenyl)-2-(trifluoromethyl)isonicotinamide] showed an IC50 of 100 pM.
With `Cc1ncc(NC(=O)c2cccc(C(F)(F)F)c2)cc1-c1ccc2c(c1)N1CCOCC1C(CS(C)(=O)=O)C2` (racemic) [Example 364, (rac)-N-(6-methyl-5-(5-((methylsulfonyl)methyl)-1,2,4,4a,5,6-hexahydro-[1,4]oxazino[4,3-a]quinolin-9-yl)pyridin-3-yl)-3-(trifluoromethyl)benzamide] the IC50 was 800 pM.
Work on `Cc1ccc(NC(=O)c2ccnc(C(C)(C)F)c2)cc1-c1ccc2c(c1)N1CCOCC1C(CS(C)(=O)=O)C2` (racemic) [Example 365, (rac)-2-(2-fluoropropan-2-yl)-N-(4-methyl-3-(5-((methylsulfonyl)methyl)-1,2,4,4a,5,6-hexahydro-[1,4]oxazino[4,3-a]quinolin-9-yl)phenyl)isonicotinamide] yielded an IC50 of 200 pM.
`Cc1ccc(NC(=O)c2ccnc(C(C)(F)F)c2)cc1-c1ccc2c(c1)N1CCOC[C@]1(C)C[C@@H]2O` (relative stereo) [Example 26] showed an IC50 of 14 pM.
`Cc1ccc(NC(=O)c2ccnc(C(C)(F)F)c2)cc1-c1cnc2c(c1)N1CCOC[C@H]1[C@H](F)[C@H]2O` (relative stereo) [Example 140, rac-2-(1,1-difluoroethyl)-N-(3-((4aS*,5S*,6S*)-5-fluoro-6-hydroxy-1,2,4,4a,5,6-hexahydro-[1,4]oxazino[4,3-a][1,5]naphthyridin-9-yl)-4-methylphenyl)isonicotinamide] gave an IC50 of 8.5 pM.
`CCN1C(=O)[C@@H]2COCC[C@@]2(C)c2cc(-c3cc(NC(=O)c4ccnc(C(F)(F)F)c4)ccc3C)cnc21` (relative stereo) [Example 341, N-(3-((4a,10b-trans)-6-ethyl-10b-methyl-5-oxo-2,4,4a,5,6,10b-hexahydro-1H-pyrano[3,4-c][1,8]naphthyridin-9-yl)-4-methylphenyl)-2-(trifluoromethyl)isonicotinamide] was tested, and the IC50 was 600 pM.
Compound `CCN1C(=O)[C@@H]2COCC[C@@]2(C)c2cc(-c3cc(NC(=O)c4ccnc(C(F)(F)F)c4)ccc3C)cnc21` (relative stereo) [Example 342, N-(3-((4a,10b-trans)-6-ethyl-10b-methyl-5-oxo-2,4,4a,5,6,10b-hexahydro-1H-pyrano[3,4-c][1,8]naphthyridin-9-yl)-4-methylphenyl)-2-(trifluoromethyl)isonicotinamide] has an IC50 of 100 pM.
With `Cc1ccc(NC(=O)c2ccnc(C(C)(F)F)c2)cc1-c1cnc2c(c1)[C@@]1(C)CCOCC[C@@H]1C(=O)N2CCO` (relative stereo) [Example 351, 2-(1,1-difluoroethyl)-N-((5a,11b-trans)-3-(7-(2-hydroxyethyl)-11b-methyl-6-oxo-1,2,4,5,5a,6,7,11b-octahydrooxepino[4,5-c][1,8]naphthyridin-10-yl)-4-methylphenyl) isonicotinamide] the IC50 was 1100 pM.
With `Cc1ccc(NC(=O)c2ccnc(C(C)(F)F)c2)cc1-c1cnc2c(c1)[C@@]1(C)CCOCC[C@@H]1C(=O)N2CCO` (relative stereo) [Example 352, 2-(1,1-difluoroethyl)-N-((5a,11b-trans)-3-(7-(2-hydroxyethyl)-11b-methyl-6-oxo-1,2,4,5,5a,6,7,11b-octahydrooxepino[4,5-c][1,8]naphthyridin-10-yl)-4-methylphenyl)isonicotinamide] the IC50 was 100 pM.
`Cc1ccc(NC(=O)c2ccnc(C(C)(F)F)c2)cc1-c1ccc2c(c1)N1CCOC[C@@H]1C[C@@H]2O` (single isomer, unassigned) [Example 14] gave an IC50 of 34 pM.
With `Cc1ccc(NC(=O)c2ccnc(C(C)(F)F)c2)cc1-c1ccc2c(c1)N1CCOC[C@H]1C[C@@H]2O` (single isomer, unassigned) [Example 19] the IC50 was 19 pM.
With `Cc1ccc(NC(=O)c2ccnc(C(C)(F)F)c2)cc1-c1ccc2c(c1)N1CCOC[C@@H]1C[C@H]2O` (single isomer, unassigned) [Example 20] the IC50 was 25 pM.
`Cc1ccc(NC(=O)c2ccnc(C(C)(F)F)c2)cc1-c1ccc2c(c1)N1CCOC[C@H]1C(CO)(CO)C2` (single isomer, unassigned) [Example 52] was tested, and the IC50 was 160 pM.
`Cc1ccc(NC(=O)c2ccnc(C(C)(F)F)c2)cc1-c1ccc2c(c1)N1CCOCC1C(F)(CO)C2` (single isomer, unassigned) [Example 82, 2-(1,1-difluoroethyl)-N-(3-(5-fluoro-5-(hydroxymethyl)-1,2,4,4a,5,6-hexahydro-[1,4]oxazino[4,3-a]quinolin-9-yl)-4-methylphenyl)isonicotinamide] gave an IC50 of 170 pM.
